The nature of the series: Permeability for probe polymers and dyes, and its temperature dependence, by confocal imaging. It counts as physicochemical. The note with it: independent of their charge. As for the experimental part: Monodisperse spheres (d=5.94 μm) of a weakly polymerized melamine-formaldehyde resin were used as templates (Microparticle GmbH). The particles were covered by alternating adsorption of sodium polystyrene sulfonate PSS (MW 70 000 g mol^−1, Aldrich) and polyallylamine hydrochloride PAH (MW 70 000 g mol^−1, Aldrich) from an aqueous solution of 10^−2 M PSS in 0.1 M sodium chloride. After 8 layers the core was dissolved in 0.1 M hydrochloric acid. The decomposition products were removed by washing with acid and an aqueous solution of 10^−2 M NaCl. Hollow polyelectrolyte capsules remained. […]
For the study of the permeability, fluorescence labeled polymers were used. […] The MW of the polymer was determined being 120 000 g/mol by gel permeation chromatography. […]
Laser scanning microscopy was performed for the determination of the loading grade of the capsules. […] The amounts of polymer/monomer in the interior were determined by integration of the fluorescence intensity inside the capsules. The exact concentration was taken from calibration curves, determined for each fluorescent probe separately. […]
The permeability of the capsules was studied for positively (PAH) and negatively charged (PSS), zwitterionic (albumine) and noncharged (dextran) fluorescent polymers (dextran). […] Then, the fluorescence intensity in the center of the capsules was measured by confocal imaging. […]

Consider `CN(C)c1ccc2cc3ccc(N(C)C)cc3nc2c1` [acridine orange], for which the “penetration of the capsule wall by small dye molecules” value is given as “can penetrate the capsule wall”.
As to rhodamine, the “penetration of the capsule wall by small dye molecules” value is recorded as “can penetrate the capsule wall”.

The record behind these values is US20040013721A1, “Controlled and sustained release properties of polyelectrolyte multilayer capsules” (priority 2000, published 2004).
